Peptide text beside a SMILES is read from it.

The record followed here is patent US20150329608A1 (INSTITUT PASTEUR, priority 2008, published 2015).

The test system of series [1] is despair or resignation behavior in adult male rats. Briefly: Behavioral despair test (forced swimming test).
Procedure: The protective effect against resignation may be determined by the forced swimming test in rats.
The peptide to be tested is administered after the pre-test session and before the test. The immobility time of the rats is recorded for 5 min during the pre-test and the test.
The test includes a pre-test session of 15 minutes and a test session of 5 minutes, after 24 hours. During the pre-test session, the behavior of the rat is recorded during the first 5 minutes. At the end of the pre-test, the rat is removed from the water, delicately dried, treated and then put back in his dwelling cage. During the test, the rat is again deposited in water and its behavior is recorded for 5 minutes.
The reference substance was 8-OH-DOAT (0.5 mg/kg) which is a 5-HT1a agonist or imipramine (20 mg/kg), which is an inhibitor of serotonin reuptake.
For series [2], the system named is colic inflammation in rats. As to the kind of experiment: Colic inflammation model (intrarectal TNBS). The class given is in vivo, rat. Conditions: opiorphin 1 mg/kg i.v.
Series [3] deals with acute pain behavioral response in male rats.
Series [4] concerns tail-flick response in male Wistar rats.
Procedure: Male Wistar rats (Harlan, France) weighing 250 to 280 g at the beginning of the experiment were used in this study. After 7-day acclimatization period, they were weighed and randomly housed according to the treatment groups in a room with a 12 h alternating light/dark cycle (21:00 p.m./9:00 a.m.) and controlled temperature (21±1° C.) and hygrometry (50±5%). Food and water were available ad libidum. They were experimentally only tested once.
(§1) All drugs were administered in a volume of 1 ml/kg body weight.
The tail-flick test evaluating the time required to respond to acute thermal stimulus preferentially reflects nociceptive spinal reflex. A standardized tail-flick apparatus (Harvard Apparatus LTD, Edenbridge, England) with a radiant heat source connected to an automated tail-flick analgesymeter was used. Rats were accustomed to the situation of contention for two 2-min sessions, the day prior the test. On experimental day, they were gently restrained by hand so the radiant heat source was focused onto the distal dorsal surface of the tail. […] Under these experimental conditions and in reference to morphine, a 5 sec cut-off time was established to prevent tissue damage. […] For tolerance induction rats received daily intravenous administration of freshly prepared solutions during seven consecutive days.
The results were expressed as mean±SEM. The significance of differences between groups was evaluated using the Kruskal-Wallis one-way analysis of variance by ranks (KWT, a non-parametric method) for comparison between several independent variables across the experimental conditions. […] The non-parametric Wilcoxon matched pairs test (WT) was used to compare two paired variables with repeated measures in each treatment group. For all statistical evaluations, the level of significance was set at P<0.05. All statistical analyses were carried out using the computer software StatView®5 statistical package (SAS, Institute, Inc., USA).
The test system of series [5] is pharmaco-dependency behavior in rats. To be noted: opiorphin at effective analgesic doses (1 mg/kg), repeated administration.
Series [6] deals with locomotor activity in rats. To be noted: opiorphin 1 mg/kg i.v.; vs control.
Procedure: The measured variables are the number of upright standing movements (vertical activity) and the number of passages into the two compartments (horizontal activity) during a period of 3 min. The reference molecule is imipramine (20 mg/kg).
The subject of series [7] is chronic pain behavioral response in rats. Briefly: Formalin test (chronic chemical inflammatory pain).
Procedure: The reference substance is morphine, at a dose of 2 mg/kg.
The antagonistic effect of the following ligands was analyzed: an opioid antagonist with a wide spectrum (Naloxone, 3 mg/kg) and selective antagonists of the opioid μ-receptors (CTOP, 0.8 mg/kg), δ-receptors (Naltrindole, 10 mg/kg) and κ-receptors (Nor-Binaltorphimine, 5 mg/kg), respectively.
as §1
Series [8] has as its system anxiety in Wistar male rats.

Source text for memorization in rats: With the passive avoidance test in rats it is possible to evaluate the degree of memorization of the animal during the application of an aversive stimulus from which it cannot escape. […] The first compartment where the rat is deposited at the beginning of the test is illuminated and communicates through a sash door with a dark compartment and the floor of which includes an electrified grid. The passive avoidance test includes a pre-test session where the animals receive an electric shock (2 mA, 2s) when it enters the dark compartment, and a 3 minute test session after 24 hours, where the behavior of the animal is analyzed for its long term retention of the learned task (the grid of the dark compartment is no longer electrified in the test).

On to `CCCN(CCC)C1CCc2cccc(O)c2C1` (stereo not drawn) [8-OH-DPAT, reference compound], for which, in [1] (8-OH-DPAT 0.5 mg/kg), the “immobility time in the test vs control group (Mann-Whitney)” value was “significantly less than that of the rats from the control group”; the “immobility time, change between pre-test and test (Wilcoxon)” value is “significantly decreases between the pre-test and the test”.
`NC(=O)CC[C@H](N)C(=O)N[C@@H](CCCN=C(N)N)C(=O)N[C@@H](Cc1ccccc1)C(=O)N[C@@H](CO)C(=O)N[C@@H](CCCN=C(N)N)C(=O)O` [opiorphin, QRFSR] (H-QRFSR-OH): the “protection of the colic wall from inflammation” value in series [2] is reported as “does not protect the colic wall from inflammation”. Also, the “latency time for entering the dark compartment, Test” value in the series with memorization in rats (24 hours after, Opiorphin 1 mg/kg i.v. given immediately after pre-test, average ±SEM, n=8) came to 158.5 ± 20.5. In addition, the amnesia effect entry with memorization in rats (opiorphin 1 mg/kg i.v.) was “does not show any amnesia effect”. For the same molecule, the “antinociceptive activity compared with morphine” value in series [3] (opiorphin 1 mg/kg i.v. vs morphine 6 mg/kg i.p.) is given as “equivalent”. Also, in series [3] (opiorphin 1 mg/kg i.v., n=8-12 rats/group), the antinociceptive activity entry was “potent antinociceptive activity”. The “response latencies vs morphine-treated rats” value in series [4] (15, 25 and 60 minutes after treatment, Opiorphin 2 mg/kg i.v. vs morphine 1 mg/kg i.v.) was “did not significantly differ”. For the same molecule, the “tolerance to maximal antinociceptive effect” value in series [4] (Opiorphin 2 mg/kg i.v. once daily for 7 days) is “does not induce the development of tolerance”. The “dose of maximal antinociceptive effect” value in series [4] (preliminary data, dose-dependent responses) is reported as 2 mg/kg. Further, the pharmaco-dependence entry in series [5] is “does not cause significant pharmaco-dependence”. The hyperactivity effect entry in series [6] is “nor any significant hyperactivity effect”. Also, the “analgesic effect of opiorphin in the presence of Naloxone” value in [7] (Naloxone 3 mg/kg) was “abolished”. For the same molecule, the “prolonged analgesic profile, dose effect” value in series [7] (duration of licking of the paw and number of spasms, n=8 rats/group) is listed as “significant dose-dependent effect”. The “dose of maximum anti-nociceptive potency” value in series [7] (i.v., duration of licking of the paw and number of spasms, 60 min) lay within 1 to 2 mg/kg. Moreover, in series [7] (specific antagonist of μ-opioid receptors, 0.8 mg/kg), the “analgesic effect of opiorphin in the presence of CTPA” value was “abolished”. Besides, the anti-peristaltic effect entry with peristaltism in rats (rats treated with opiorphin) is listed as “not observed”. In addition, the “overall anxiety score, Average ± SEM” value in [8] (Opiorphin 1 mg/kg i.v., 15 minutes before the test, n=8) came out at 25.94 ± 3.74. Besides, the “anxiolytic activity relatively to the control” value in series [8] (opiorphin 1 mg/kg i.v.) is “did not show any anxiolytic activity”. Besides, the “effects of opiorphin in the presence of Naltrindole” value in series [1] (Naltrindole 10 mg/kg, specific antagonist of δ-opioid receptors) is recorded as “abolished”. Also, the “dose of maximum antidepressant potency” value in series [1] (administered intravenously, adult male rats) is on record as 1 mg/kg. Further, the “immobility time in the test vs control group (Mann-Whitney)” value in series [1] (opiorphin 0.5 mg/kg i.v.) is listed as “tends to be less than that of the rats from the control group”; in series [1] (opiorphin 1 mg/kg i.v.), “significantly less than that of the rats from the control group”; in [1] (opiorphin 2 mg/kg i.v.), “significantly less than that of the rats from the control group”. Further, the “immobility time, change between pre-test and test (Wilcoxon)” value is “significantly decreases between the pre-test and the test” in [1] (opiorphin 1 mg/kg i.v.); “significantly decreases between the pre-test and the test” in [1] (opiorphin 2 mg/kg i.v.). In addition, the “effect in the behavioral despair model” value in series [1] (opiorphin 1 mg/kg i.v., second series) is reported as “induces an antidepressant effect in addition to a psychostimulant effect”.
For the molecule `CC(C)Cc1ccc(C(C)C(=O)O)cc1` (stereo not drawn) [ibuprofen, reference compound], the “protection of the colic wall from inflammation” value in series [2] is “protect the colic wall from inflammation”.
For `CN1CC[C@]23c4c5ccc(O)c4O[C@H]2[C@@H](O)C=C[C@H]3[C@H]1C5` [morphine, reference compound], the “morphine-induced increase vs Opiorphin-induced response, day 7” value in series [4] (15 min post-injection, after 7 days chronic treatment) is “tended to be lower than the response induced by Opiorphin”. Further, the “inhibition of peristaltism as compared with control rats” value in the series with peristaltism in rats (rats treated with morphine) is 80-90%.
